Legend:
[1] = Protein binding to human plasma proteins by equilibrium dialysis; format: in vitro ADME; conditions: pH 7.4, equilibrium dialysis 6 h, 37° C.
Method: 96 Well Plate (High Throughput Dialysis): Stock solution of compound was spiked into human plasma at a target concentration of 2000 ng/mL. The mixture was inverted gently several times to insure homogeneity and triplicate 50 μL aliquots were collected to verify initial concentrations. Following assembly of dialysis plate (HTDialysis membrane strips, molecular weight cut off limit of 12,000-14,000 daltons), spiked plasma (150 μL) was placed in the donor compartment of the well and Phosphate Buffered Saline pH 7.4 (150 μL) in the receiver compartment. Eight wells were set up per compound and plasma type. Plate was placed in a 37° C. incubator on a plate shaker. Following the 6 h incubation period, the plate was removed. Single 50 μL aliquots from each donor and receiver compartment (per well) were analyzed.
Sample analysis was by LC/MS/MS (results reported as Drug Peak Area/Internal Standard Peak Area ratios). Protein binding assay can also be performed using dialysis cells instead of HT Dialysis 96 well plates. In Table 1, % Protein Binding, +=>98%; ++=95-98%: +++=<95%.

[2] = High throughput solubility assay; format: physicochemical; conditions: aqueous buffer, pH 7.4, 0.05M phosphate buffer
Method: Two samples are prepared. One (the standard sample) contains the compound at a fixed concentration of 20 μM in an aqueous/organic mixed solvent cocktail. The other (the test sample) contains the compound at a maximum concentration of 200 μM in pH 7.4, 0.05M phosphate buffer and shaking for 24 h. The test sample is filtered by 0.45μ filter and then spun for 10 min to remove any undissolved solid. HPLC analyses are preformed on these samples. The peak areas are used for computing solubility.

[3] = system: cancer cell lines; experiment: Methylene Blue, Cell-Titre Glo Growth or Multiple Cell Line cellular proliferation assays; format: cell-based
Method: Generally, exponentially growing cell lines of different tumor origins, cultured in appropriate media containing 10% fetal bovine serum at 37° C. in a 5% CO2 incubator were plated at low density (less than 2000 cells/well) in 96-well plates. Twenty four hours post-plating, cells were treated with different concentrations of compound ranging from 10 uM to 0.04 nM. Several wells were left untreated as a control. Seventy two hours post-treatment, cell numbers were determined using 100 μl per well of methylene blue (Sigma M9140) (0.5% in 50:50 Ethanol:water). Stain was incubated at room temperature for 30 minutes before plates were rinsed and dye solubilized in 1% N-lauroyl sarcosine, sodium salt, (Sigma L5125, in PBS) (further details of a methylene blue assay are described below). Plates were read on a microplate reader, measuring the OD at 620 nm.
Exponentially growing cell lines of different tumor origins, cultured in appropriate media containing 10% fetal bovine serum at 37° C. in a 5% CO2 incubator were plated at low density (less than 2000 cells/well) in 96-well plates. […] Seventy two hours post-treatment, cell numbers were determined using 50-100 ul per well of CellTiter-Glo (Promega #G7573). Plates were incubated at room temperature for 15 minutes and the chemiluminescent signal was read on the Victor V or Envison 2100 reader. […]

[4] = system: MCF7; experiment: Cell-Titer-Glo cell proliferation; format: cell-based; conditions: Homo sapiens, breast, 72 h
Method: (§1) Exponentially growing cell lines of different tumor origins, cultured in appropriate media containing 10% fetal bovine serum at 37° C. in a 5% CO2 incubator were plated at low density (less than 2000 cells/well) in 96-well plates. Twenty four hours post-plating, cells were treated with different concentrations of compound ranging from 10 uM to 0.04 nM. Several wells were left untreated as a control. Seventy two hours post-treatment, cell numbers were determined using 50-100 ul per well of CellTiter-Glo (Promega #G7573). Plates were incubated at room temperature for 15 minutes and the chemiluminescent signal was read on the Victor V or Envison 2100 reader.
(§2) Concentration of compound that inhibited 50% of cell growth (IC50) was determined by 4 parameter fit of data using XLfit, (value of no cell control was subtracted from all samples for background). The Cell-Titer Glo data are shown in Table 3 below and represent a compilation of several different experiments, each performed using the general parameters outlined above, although minor variations may have been employed in some instances.

[5] = system: COLO205; experiment: Cell-Titer-Glo cell proliferation; format: cell-based; conditions: Homo sapiens, COLO 205, colon, 72 h
Method: as §1, §2

[6] = system: HN5; experiment: Cell-Titer-Glo cell proliferation; format: cell-based; conditions: Homo sapiens, head and neck, 72 h
Method: as §1, §2

[7] = system: MDA-MB-468; experiment: Cell-Titer-Glo cell proliferation; format: cell-based; conditions: Homo sapiens, breast, 72 h
Method: as §1, §2

[8] = system: HCT116; experiment: Cell-Titer-Glo cell proliferation; format: cell-based; conditions: Homo sapiens, HCT-116, colon, 72 h
Method: as §1, §2

[9] = system: LNCaP; experiment: Cell-Titer-Glo cell proliferation; format: cell-based; conditions: Homo sapiens, prostate, 72 h
Method: as §1, §2

[10] = system: ASPC3; experiment: Cell-Titer-Glo cell proliferation; format: cell-based; conditions: pancreas, 72 h
Method: as §1, §2

[11] = system: P388; experiment: Cell-Titer-Glo cell proliferation; format: cell-based; conditions: Mus musculus, blood, 72 h
Method: as §1, §2

[12] = system: H1299; experiment: Cell-Titer-Glo cell proliferation; format: cell-based; conditions: Homo sapiens, NCI-H1299, lung, 72 h
Method: as §1, §2

[13] = system: A549-L; experiment: Cell-Titer-Glo cell proliferation; format: cell-based; conditions: lung, 72 h
Method: as §1, §2

[14] = system: SKOV-3; experiment: Cell-Titer-Glo cell proliferation; format: cell-based; conditions: Homo sapiens, SK-OV-3, ovary, 72 h
Method: as §1, §2

[15] = system: BXPC3; experiment: Cell-Titer-Glo cell proliferation; format: cell-based; conditions: Homo sapiens, BXPC-3, pancreas, 72 h
Method: as §1, §2

[16] = system: PANC-1; experiment: Cell-Titer-Glo cell proliferation; format: cell-based; conditions: Homo sapiens, pancreas, 72 h
Method: as §1, §2

[17] = system: MV522; experiment: Cell-Titer-Glo cell proliferation; format: cell-based; conditions: lung, 72 h
Method: as §1, §2

[18] = system: MiaPaca; experiment: Cell-Titer-Glo cell proliferation; format: cell-based; conditions: Homo sapiens, MIA PaCa-2, pancreas, 72 h
Method: as §1, §2

[19] = system: Hela; experiment: Cell-Titer-Glo cell proliferation; format: cell-based; conditions: Homo sapiens, cervix, 72 h
Method: as §1, §2

[20] = system: MX-1; experiment: Cell-Titer-Glo cell proliferation; format: cell-based; conditions: Homo sapiens, MX1, breast, 72 h
Method: as §1, §2

[21] = system: HT29; experiment: Cell-Titer-Glo cell proliferation; format: cell-based; conditions: Homo sapiens, HT-29, colon, 72 h
Method: as §1, §2

fraction unbound at 6 h, 2000 ng/mL [1]: > 0.05
solubility at 24 h [2]: > 100 µM
IC50 [3]: < 1000 nM
IC50 [4]: < 500 nM
IC50 [5]: < 500 nM
IC50 [7]: < 500 nM
IC50 [8]: < 500 nM
IC50 [9]: < 500 nM
IC50 [10]: < 500 nM
IC50 [11]: < 500 nM
IC50 [12]: < 500 nM
IC50 [13]: < 500 nM
IC50 [14]: < 500 nM
IC50 [15]: < 500 nM
IC50 [16]: < 500 nM
IC50 [18]: < 500 nM
IC50 [19]: < 500 nM
IC50 [21]: < 500 nM
Compound: C[C@@H](Oc1cc(-n2cnc3ccc(CN4CCN(C)CC4)cc32)sc1C(N)=O)c1ccccc1C(F)(F)F [Example 1, 5-{6-[(4-Methylpiperazin-1-yl)methyl]-1H-benzimidazol-1-yl}-3-{(1R)-1-[2-(trifluoromethyl)phenyl]ethoxy}thiophene-2-carboxamide]
IC50 [6]: < 500 nM
IC50 [17]: < 500 nM
IC50 [20]: < 500 nM
